# According to ChEMBL document CHEMBL1201862, “PubChem BioAssay data set” (2004):
# Active and inactive are the calls of the source. For most assays here, no stated cut-off is given here; in the data, actives have a measured EC50 and inactives only a lower limit.
# What was measured:
# [1] = Luminescence Cell-Based Dose Confirmation HTS to Identify Inhibitors of Platelet Dense Granule Release. [Related pubchem assays: 1663 (Primary HTS), 1678 (Summary of Project)]; format: functional
# [2] = target: Luciferin 4-monooxygenase (Photinus pyralis, UniProt P08659); test: inhibition of purified Photinus pyralis luciferase – biochemical, luminescence, dose response (AID 1891)
# Luciferin 4-monooxygenase, sequence (P08659 whole entry): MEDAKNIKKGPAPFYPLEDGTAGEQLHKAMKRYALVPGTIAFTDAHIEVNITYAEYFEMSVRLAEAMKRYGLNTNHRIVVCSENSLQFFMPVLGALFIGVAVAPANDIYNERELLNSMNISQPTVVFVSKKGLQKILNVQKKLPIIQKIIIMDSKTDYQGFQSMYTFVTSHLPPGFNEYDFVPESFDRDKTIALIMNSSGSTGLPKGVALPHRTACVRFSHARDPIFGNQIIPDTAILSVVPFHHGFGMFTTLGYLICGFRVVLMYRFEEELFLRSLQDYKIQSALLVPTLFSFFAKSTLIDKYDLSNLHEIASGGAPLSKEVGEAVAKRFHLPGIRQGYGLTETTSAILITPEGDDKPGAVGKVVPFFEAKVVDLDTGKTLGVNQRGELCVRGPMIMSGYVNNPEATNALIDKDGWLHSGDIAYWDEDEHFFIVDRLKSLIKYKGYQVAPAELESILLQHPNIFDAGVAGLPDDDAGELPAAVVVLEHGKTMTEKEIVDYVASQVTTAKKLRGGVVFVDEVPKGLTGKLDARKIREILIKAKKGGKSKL
# [3] = Luminescence Cell-Based Dose Retest to Confirm Inhibitors of Cancer Stem Cells. [Related pubchem assays (depositor defined):AID2717, AID2721]; format: functional; settings: Homo sapiens
# [4] = NIH3T3 cell viability loss – ATP luminescence, mouse fibroblasts, counter-screen, dose response (AID 2010); format: functional, cell-based;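 further: cells exposed to compound for about 90 hours before reading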
# [5] = luciferase reporter signal suppression in cells – H4 neuroglioma cells, luminescence, dose response (AID 1990); format: functional, cell-based
# [6] = alpha-synuclein stem-loop luciferase translation blockers – H4 neuroglioma cells, luminescence, confirmation (AID 1988); format: functional, cell-based
# [7] = Luminescence Cell-Based Dose Response HTS to Identify Inhibitors of 5'UTR Stem-Loop Driven Prion Protein mRNA Translation in H4 Neuroglioblastoma Cells. [Related pubchem assays: 1827 (Project Summary), 1813 (Primary HTS)]; format: functional
# [8] = Trypanosoma cruzi growth suppression in host cells – NIH3T3 host cells, beta-gal luminescence, confirmation (AID 2044); format: functional, cell-based;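 further: intracellular parasites grown in NIH/3T3 mouse fibroblasts as host cells; luminescent beta-galactosidase reporter signal from transgenic T. cruzi replicating inside host cells; inhibitors lower the luminescence signal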
# [9] = target: T1, Heat shock factor protein 1 (Mus musculus, UniProt P38532); test: enhancement of HSF1-driven luciferase signal – cell-based, NIH3T3, luminescence, dose retest, confirmation (AID 435004); format: functional;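 further: stress induced by proteasome inhibitor MG132 added 30 min after compound; luciferase reporter driven by HSF1 response element in NIH3T3 cells; actives raise luminescence as potentiators of the MG132 stress response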
# T1 sequence (P38532 whole entry): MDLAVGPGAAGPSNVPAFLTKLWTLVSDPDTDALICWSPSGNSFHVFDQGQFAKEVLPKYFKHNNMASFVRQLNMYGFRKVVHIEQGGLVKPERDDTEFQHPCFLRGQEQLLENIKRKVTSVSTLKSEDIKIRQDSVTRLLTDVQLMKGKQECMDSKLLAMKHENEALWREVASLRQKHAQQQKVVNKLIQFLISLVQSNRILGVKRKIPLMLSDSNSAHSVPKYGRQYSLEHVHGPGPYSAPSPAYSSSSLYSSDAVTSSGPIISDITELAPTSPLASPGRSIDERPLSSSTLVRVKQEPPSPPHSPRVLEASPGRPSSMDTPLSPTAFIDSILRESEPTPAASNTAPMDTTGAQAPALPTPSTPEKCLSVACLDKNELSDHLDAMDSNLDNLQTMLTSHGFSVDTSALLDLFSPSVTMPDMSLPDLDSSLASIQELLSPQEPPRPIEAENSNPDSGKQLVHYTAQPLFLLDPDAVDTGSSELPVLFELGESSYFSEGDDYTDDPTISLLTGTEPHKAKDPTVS
# [10] = target: Cytochrome P450 2D6 (Homo sapiens, UniProt P10635);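 further: CYP2D6 member of a cytochrome P450 panel assay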
# Cytochrome P450 2D6, sequence (P10635 whole entry): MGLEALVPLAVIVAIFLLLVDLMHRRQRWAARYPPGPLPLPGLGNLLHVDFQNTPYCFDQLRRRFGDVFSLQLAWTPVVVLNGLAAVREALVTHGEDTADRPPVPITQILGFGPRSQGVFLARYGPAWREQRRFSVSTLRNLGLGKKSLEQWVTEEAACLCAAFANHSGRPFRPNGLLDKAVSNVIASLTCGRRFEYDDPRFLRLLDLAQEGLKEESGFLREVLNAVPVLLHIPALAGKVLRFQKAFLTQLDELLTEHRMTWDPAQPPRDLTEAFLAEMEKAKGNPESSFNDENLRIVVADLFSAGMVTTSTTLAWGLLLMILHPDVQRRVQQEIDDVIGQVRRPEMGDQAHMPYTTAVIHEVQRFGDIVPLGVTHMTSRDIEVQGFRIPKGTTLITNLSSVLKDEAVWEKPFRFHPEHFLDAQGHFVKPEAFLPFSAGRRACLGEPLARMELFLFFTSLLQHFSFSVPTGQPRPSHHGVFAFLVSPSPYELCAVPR
# [11] = target: Cytochrome P450 3A4 (Homo sapiens, UniProt P08684);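 further: CYP3A4 tested as one member of a cytochrome P450 panel screen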
# Cytochrome P450 3A4, sequence (P08684 whole entry): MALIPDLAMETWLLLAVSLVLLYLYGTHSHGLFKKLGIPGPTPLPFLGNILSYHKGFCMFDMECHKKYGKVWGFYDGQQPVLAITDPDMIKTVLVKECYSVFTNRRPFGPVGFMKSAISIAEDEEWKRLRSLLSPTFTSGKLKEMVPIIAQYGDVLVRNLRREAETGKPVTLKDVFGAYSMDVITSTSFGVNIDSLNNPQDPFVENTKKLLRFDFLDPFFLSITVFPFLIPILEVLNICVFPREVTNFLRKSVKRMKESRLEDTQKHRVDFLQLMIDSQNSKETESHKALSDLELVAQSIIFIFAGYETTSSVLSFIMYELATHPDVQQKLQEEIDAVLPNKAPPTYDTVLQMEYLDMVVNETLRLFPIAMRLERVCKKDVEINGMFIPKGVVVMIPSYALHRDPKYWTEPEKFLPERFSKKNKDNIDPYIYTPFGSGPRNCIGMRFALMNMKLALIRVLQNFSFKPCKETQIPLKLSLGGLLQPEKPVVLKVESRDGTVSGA
# [12] = tested on: INS1; test: INS-1E survival protection against cytokine death – cell-based, luminescence, retest, dose response (AID 449756); format: functional; settings: Rattus norvegicus;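 further: cell death triggered by IL-1 beta plus TNF-alpha plus IFN-gamma mixture; protective hits raise ATP signal compared with cytokine alone wells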
# [13] = tested on: H9c2; test: cells; format: functional, cell-based; settings: Rattus norvegicus, H9c2, Myocardium;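 further: confirmatory concentration-response retest of ultra-high-throughput screening hits for modulation of myocardial damage; cell death induced by hydrogen peroxide oxidative stress; compound pretreatment for 60 min then peroxide exposure for 2 h; potency is for protecting the cells against peroxide damage rather than for killing them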
# [14] = target: T1, Heat shock factor protein 1; test: decrease of HSF1-responsive luciferase luminescence – cell-based, NIH3T3, dose retest, confirmation (AID 2382); format: functional;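 further: NIH3T3 fibroblasts with HSF1-driven luciferase reporter stressed by proteasome inhibitor MG132; luminescence from HSF1-driven luciferase expression after 8 hours of MG132 stress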
# [15] = tested on: Streptococcus; test: GAS UMAA2166 growth inhibition – luminescence, BacTiterGlo, counter-screen for streptokinase expression inhibitor project, dose response (AID 1915); format: functional, organism-based;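 further: potency for reduction of bacterial viability or growth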
# [16] = tested on: Streptococcus sp. 'group A'; test: Streptococcus pyogenes SK(-)GAS viability under kanamycin – luminescence, BacTiterGlo, confirmation, counter-screen for streptokinase expression inhibitor project, dose response (AID 1900); format: functional, organism-based
# [17] = target: T2, Streptokinase A (Streptococcus pyogenes serotype M1, UniProt P10520); test: viability-normalized secreted streptokinase activity reduction – plasminogen activation absorbance, OD405, dose response (AID 1914); format: functional, Streptococcus pyogenes M1 GAS;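 further: secreted streptokinase activity via plasminogen activation per viability signal from cell pellet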
# T2 sequence (P10520 whole entry): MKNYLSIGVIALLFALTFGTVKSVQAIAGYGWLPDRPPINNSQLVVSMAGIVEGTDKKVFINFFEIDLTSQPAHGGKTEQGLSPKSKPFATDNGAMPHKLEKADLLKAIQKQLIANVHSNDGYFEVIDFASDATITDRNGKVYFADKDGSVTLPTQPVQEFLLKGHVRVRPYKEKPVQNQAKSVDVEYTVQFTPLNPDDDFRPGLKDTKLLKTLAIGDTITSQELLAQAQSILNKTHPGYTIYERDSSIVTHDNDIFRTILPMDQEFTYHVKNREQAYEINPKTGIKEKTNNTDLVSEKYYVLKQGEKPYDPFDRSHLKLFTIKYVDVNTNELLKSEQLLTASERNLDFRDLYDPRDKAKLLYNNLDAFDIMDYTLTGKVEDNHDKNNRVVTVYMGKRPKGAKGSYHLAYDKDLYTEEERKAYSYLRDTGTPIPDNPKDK
# [18] = target: T3, Cytochrome P450 1A2 (Homo sapiens, UniProt P05177);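 further: PubChem cytochrome P450 panel assay, CYP1A2 panel member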
# T3 sequence (P05177 whole entry): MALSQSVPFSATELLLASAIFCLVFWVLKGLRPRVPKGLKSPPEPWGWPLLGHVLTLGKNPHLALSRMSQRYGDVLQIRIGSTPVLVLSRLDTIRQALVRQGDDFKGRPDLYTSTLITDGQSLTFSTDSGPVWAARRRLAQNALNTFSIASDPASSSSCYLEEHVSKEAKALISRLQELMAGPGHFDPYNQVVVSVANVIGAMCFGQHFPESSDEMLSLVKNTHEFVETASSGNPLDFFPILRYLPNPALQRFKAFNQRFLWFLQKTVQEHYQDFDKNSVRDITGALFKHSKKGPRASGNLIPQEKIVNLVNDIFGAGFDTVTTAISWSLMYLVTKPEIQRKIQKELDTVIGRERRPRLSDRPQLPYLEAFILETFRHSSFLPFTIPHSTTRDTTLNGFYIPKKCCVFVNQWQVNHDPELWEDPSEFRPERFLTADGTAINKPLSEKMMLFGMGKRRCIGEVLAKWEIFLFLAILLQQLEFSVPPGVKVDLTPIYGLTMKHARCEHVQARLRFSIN
compound,measurement,setting,value
COC(=O)c1ccc(CSc2nnc(N)s2)cc1,EC50,[1],> 112 µM (not active)
same,EC50,[2],> 112 µM (not active)
CC(C)(C)c1ccc(Oc2ccc(NC(=O)c3cccs3)cn2)cc1,AC50,[3],3.9 µM (active)
Cc1ccc(-n2nc3c(N4CCC(C(=O)NCCc5ccccc5C)CC4)nnc(C)c3c2C)cc1,EC50,[4],6.26 µM (active)
same,EC50,[5],9.7 µM (active)
same,EC50,[6],> 120 µM (not active)
same,EC50,[7],39.8 µM (active)
same,EC50,[8],0.941 µM (active)
COc1ccc(C(=O)N2CCCC(c3nc(-c4ccc(OC)c(OC)c4)no3)C2)c(OC)c1 (centres undefined),EC50,[1],> 112 µM (not active)
same,EC50,[2],> 112 µM (not active)
COC(=O)N1C(=O)[C@@](c2ccccc2)(C2CCCC2)N1C(=O)OC,EC50,[9],14.9 µM (active)
COc1nc(N2CCCCCC2)nc(N2CCCCCC2)n1,AC50,[3],6.21 µM (active)
O=[N+]([O-])CC(c1ccccc1)c1c(O)n[nH]c1-c1ccccc1O (centres undefined),EC50,[9],131 µM (active)
CC1CCN(Cc2c(C(=O)N/N=C/c3ccc(C(C)(C)C)cc3)nnn2-c2nonc2N)CC1,EC50,[5],9.56 µM (active)
same,EC50,[6],> 120 µM (not active)
same,EC50,[7],14.1 µM (active)
Cc1ccc(-n2c(SCC(=O)Nc3cc(S(=O)(=O)N4CCOCC4)ccc3Cl)nc3ccccc3c2=O)cc1,EC50,[9],> 260 µM (inactive)
Oc1cccc(-c2nc3c4c(ncn3n2)-c2ccccc2CC42CCCC2)c1,AC50,[10],0.631 µM (inconclusive)
same,AC50,[3],1.16 µM (active)
same,AC50,[11],22.4 µM (inconclusive)
CCc1cc(CNC(=O)c2ccc3nc(Cc4ccc(OC)c(OC)c4)oc3c2)on1,AC50,[12],3.62 µM (active)
COc1ccc(/N=C/C2=C(O)c3ccccc3C2=O)cc1,EC50,[1],3.93 µM (active)
same,EC50,[2],0.576 µM (active)
COc1ccccc1-c1c(C(F)(F)F)oc2cc(OCC(=O)Nc3cc(C)ccc3C)ccc2c1=O,EC50,[5],> 120 µM (not active)
same,EC50,[6],> 120 µM (not active)
same,EC50,[7],> 120 µM (not active)
O=C1c2cccnc2Oc2ccc(Cl)cc2N1Cc1ccc(F)cc1,IC50,[13],> 79 µM (inactive)
same,EC50,[14],> 195 µM (not active)
Cc1cc(-c2csc3ncnc(S)c23)cc(C)c1C,EC50,[15],4.06 µM (active)
same,AC50,[3],12.8 µM (active)
same,EC50,[16],1.31 µM (active)
CCCCNc1c(-c2ccc(SC3CCCCC3)cc2)nc2ccccn12,EC50,[17],> 150 µM (not active)
same,EC50,[15],8.23 µM (active)
same,EC50,[4],> 30 µM (not active)
same,AC50,[12],5.33 µM (active)
same,EC50,[8],1.2 µM (active)
same,EC50,[16],8.18 µM (active)
CCCCN=C(S)N(Cc1ccco1)Cc1cc2cc3c(cc2nc1O)OCCO3,EC50,[9],> 260 µM (inactive)
COC(=O)/C(=C\Nc1ccccc1N)c1ncc(C(F)(F)F)cc1Cl,EC50,[9],> 260 µM (inactive)
Cc1ccc(NC(=O)c2cc3c(=O)oc4ccccc4c3s2)nc1,EC50,[9],> 260 µM (inactive)
CC/C(C)=N\N=C\c1c(O)n(CC)c2cc(C3=NNC(=O)CC3)ccc12,EC50,[1],6.14 µM (active)
same,IC50,[13],11.9 µM (active)
same,EC50,[2],> 112 µM (not active)
COc1ccc(/C=N/NC(=O)C2C3CCCCC32)cc1OC (centres undefined),EC50,[5],> 120 µM (not active)
same,EC50,[6],67.5 µM (active)
same,EC50,[7],> 120 µM (not active)
O=C1c2c(Br)c(Br)c(Br)c(Br)c2C(=O)N1c1ccccn1,AC50,[3],1.95 µM (active)
Cc1nc(O)nc(O)c1/C=C/C(=O)OCC(C)C,EC50,[5],22.7 µM (active)
same,EC50,[6],15.5 µM (active)
same,EC50,[7],> 120 µM (not active)
O=C1CC(c2cccc(Cl)c2)c2cc3c(cc2N1)CCC3 (centres undefined),EC50,[5],> 120 µM (not active)
same,EC50,[6],6.74 µM (active)
same,EC50,[7],11.9 µM (active)
O=C(NCc1cccs1)c1csc2ccccc12,EC50,[1],> 112 µM (not active)
same,EC50,[2],> 112 µM (not active)
COc1ccc(OCC(=O)Nc2nc3ccccc3[nH]2)cc1,EC50,[1],> 112 µM (not active)
same,EC50,[2],> 112 µM (not active)
CN(C)c1nc(NC(C)(C)C)nc(SCC(=O)Nc2ccccc2)n1,EC50,[9],> 260 µM (inactive)
Cn1nnc2c[n+](CC(=O)c3ccc4ccccc4c3)cc(Br)c21,EC50,[9],12.2 µM (active)
CCOC(=O)C1=C(C)N=c2s/c(=C\C(=O)OC)c(=O)n2C1c1ccc(OC)cc1 (centres undefined),EC50,[9],10.1 µM (active)
CC(=O)NCCC(=O)Nc1nc(-c2cccs2)c(-c2cccs2)s1,EC50,[9],> 260 µM (inactive)
COC(=O)c1sccc1NC(=O)Nc1cccc(OC)c1,EC50,[1],4.37 µM (active)
same,EC50,[2],1.31 µM (active)
CCN(CC(=O)Nc1ccc(NC(C)=O)cc1)Cc1c(O)ccc2cc(Br)ccc12,EC50,[9],8.46 µM (active)
Cc1onc(-c2ccccc2)c1C(=O)N/N=C/c1cccc(O)c1,EC50,[9],> 260 µM (inactive)
COc1ccc2oc(=O)c(C(=O)N3CCCC3)cc2c1,EC50,[1],> 112 µM (not active)
same,EC50,[2],> 112 µM (not active)
COC1=C(Nc2ccccc2OC)C(=O)c2ccccc2C1=O,AC50,[12],38.3 µM (active)
O=C(Nc1cccc(-c2csc(Nc3cccc(C(F)(F)F)c3)n2)c1)c1ccccc1,EC50,[17],> 150 µM (not active)
same,EC50,[15],6.3 µM (active)
same,AC50,[3],1.6 µM (active)
same,EC50,[16],4.47 µM (active)
CCOC(=O)c1nn(-c2ccc3c(c2)CCN3C(C)=O)cc1O,EC50,[1],> 112 µM (not active)
same,EC50,[2],> 112 µM (not active)
COCCN1CN=C(Nc2nc3ccccc3o2)NC1,EC50,[1],> 112 µM (not active)
same,AC50,[18],22.4 µM (inconclusive)
same,EC50,[2],> 112 µM (not active)
Cc1cc(OCc2cc(C(=O)N3CCC(Oc4cccnc4)CC3)no2)cc(C)c1Cl,AC50,[3],7.55 µM (active)
CCOc1ccc(C2C3=C(O)CCCC3=Nc3ccc4ncccc4c32)cc1 (centres undefined),EC50,[9],14.1 µM (active)
